Source: patent US20250215039A1, “NUCLEOSIDES FOR TREATING CANCER” (PRIMEFOUR THERAPEUTICS, INC., priority 2022, published 2025)
pIC50: −log10 of the molar value. Read-outs that look alike come from different tables or passages of the source.

System: cancer cell lines
Assay: Cancer cell proliferation activity (CellTiterGlo, 72 h)
Assay type: cell-based
Settings: 72 h, 72 h, read-out: IC50
Method in brief: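 Readout is CellTiterGlo luminescence after 72 h compound exposure (0.1% DMSO final), started one day post-seeding, at 37 °C.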

- pIC50 (5637 cell line (bladder)): 5.54
- pIC50 (CLS439 cell line (bladder)): < 4.30
- pIC50 (HS729 cell line (muscle)): < 4.30
- pIC50 (HSS78T cell line): < 4.30
- pIC50 (JAR cell line (placenta)): < 4.30
- pIC50 (SKMELS cell line): < 4.30
- pIC50 (Homo sapiens, 22Rv1, 72 h, 22RV1 cell line (prostate)): 5.82
- pIC50 (Homo sapiens, 786-0, 72 h, 786O cell line (kidney)): < 4.30
- pIC50 (Homo sapiens, A204, 72 h, A204 cell line (muscle)): 5.28
- pIC50 (Homo sapiens, A549, 72 h, A549 cell line): 5.60
- pIC50 (Homo sapiens, A673, 72 h, A673 cell line (bone)): 5.27
- pIC50 (Homo sapiens, A2780, 72 h, A2780 cell line (ovary)): < 4.30
- pIC50 (Homo sapiens, A-375, 72 h, A375 cell line (skin)): 5.20
- pIC50 (Homo sapiens, A-431, 72 h, A431 cell line (skin)): 6.47
- pIC50 (Homo sapiens, ACHN, ACHN cell line (kidney)): 5.82
- pIC50 (Homo sapiens, ASPC1, 72 h, ASPC1 cell line (pancreas)): 6.24
- pIC50 (Homo sapiens, BT-20, 72 h, BT20 cell line (breast)): < 4.30
- pIC50 (Homo sapiens, BXPC-3, 72 h, BXPC3 cell line (pancreas)): 7.10
- pIC50 (Homo sapiens, C-33-A, C33A cell line (cervical)): 5.41
- pIC50 (Homo sapiens, CAKI-1, 72 h, CAKI1 cell line (kidney)): < 4.30
- pIC50 (Homo sapiens, COLO 205, 72 h, COLO205 cell line (colon)): 5.74
- pIC50 (Homo sapiens, COLO-678, 72 h, COLO678 cell line (colon)): < 4.30
- pIC50 (Homo sapiens, Ca-Ski, CASKI cell line (cervical)): 5.15
- pIC50 (Homo sapiens, Caco-2, 72 h, CACO2 cell line (colon)): < 4.30
- pIC50 (Homo sapiens, Calu-6, 72 h, CALU6 cell line (lung)): 5.33
- pIC50 (Homo sapiens, DLD-1, 72 h, DLD1 cell line (colon)): < 4.30
- pIC50 (Homo sapiens, DU-145, 72 h, DU145 cell line (prostate)): 5.50
- pIC50 (Homo sapiens, EFO-21, 72 h, EFO21 cell line (ovary)): 4.77
- pIC50 (Homo sapiens, EJ-28, 72 h, EJ28 cell line (bladder)): 5.27
- pIC50 (Homo sapiens, Granta-519, 72 h, GRANTA-519 cell line (hematological)): 5.48
- pIC50 (Homo sapiens, HCT-15, 72 h, HCT15 cell line (colon)): < 4.30
- pIC50 (Homo sapiens, HCT-116, 72 h, HCT116 cell line (colon)): < 4.30
- pIC50 (Homo sapiens, HEK293, 72 h, HEK293 cell line (kidney)): < 4.30
- pIC50 (Homo sapiens, HL-60, 72 h, HL-60 cell line (hematological)): < 4.30
- pIC50 (Homo sapiens, HT-29, 72 h, HT29 cell line (colon)): 5.55
- pIC50 (Homo sapiens, HT-1080, 72 h, HT1080 cell line (connective tissue)): < 4.30
- pIC50 (Homo sapiens, HeLa, HELA cell line (cervical)): < 4.30
- pIC50 (Homo sapiens, HepG2, 72 h, HEPG2 cell line (liver)): 5.47
- pIC50 (Homo sapiens, IGROV-1, 72 h, IGROV1 cell line (ovary)): < 4.30
- pIC50 (Homo sapiens, IMR-90, 72 h, IMR.90 cell line): < 4.30
- pIC50 (Homo sapiens, J82, 72 h, J82 cell line (bladder)): 5.88
- pIC50 (Homo sapiens, JEG-3, 72 h, JEG3 cell line (placenta)): 5.38
- pIC50 (Homo sapiens, JIMT-1, 72 h, JIMT1 cell line (breast)): < 4.30
- pIC50 (Homo sapiens, K562, 72 h, K-562 cell line (hematological)): < 4.30
- pIC50 (Homo sapiens, Kasumi 1, 72 h, KASUMI-1 cell line (hematological)): < 4.30
- pIC50 (Homo sapiens, L-363, 72 h, L-363 cell line (hematological)): 5.25
- pIC50 (Homo sapiens, LoVo, LOVO cell line (colon)): 5.71
- pIC50 (Homo sapiens, MCF7, 72 h, MCF7 cell line (breast)): 5.98
- pIC50 (Homo sapiens, MDA-MB-231, 72 h, MDAMB231 cell line (breast)): < 4.30
- pIC50 (Homo sapiens, MDA-MB-435, 72 h, MDAMB435 cell line (skin)): < 4.30
- pIC50 (Homo sapiens, MDA-MB-436, 72 h, MDAMB436 cell line (breast)): 5.84
- pIC50 (Homo sapiens, MDA-MB-468, 72 h, MDAMB468 cell line (breast)): < 4.30
- pIC50 (Homo sapiens, MG-63, 72 h, MG63 cell line (bone)): 5.33
- pIC50 (Homo sapiens, MHH-ES-1, 72 h, MHHES1 cell line (bone)): < 4.30
- pIC50 (Homo sapiens, MIA PaCa-2, 72 h, MIAPACA2 cell line (pancreas)): 5.19
- pIC50 (Homo sapiens, MINO, MINO cell line (hematological)): 5.64
- pIC50 (Homo sapiens, MV4-11, 72 h, MV4-11 cell line (hematological)): 6.10
- pIC50 (Homo sapiens, NCI-H23, 72 h, NCI-H23 cell line (lung)): 5.31
- pIC50 (Homo sapiens, NCI-H82, 72 h, NCIH82 cell line (lung)): < 4.30
- pIC50 (Homo sapiens, NCI-H292, 72 h, NCIH292 cell line (lung)): < 4.30
- pIC50 (Homo sapiens, NCI-H460, 72 h, NCIH460 cell line (lung)): 5.64
- pIC50 (Homo sapiens, OVCAR-3, 72 h, OVCAR3 cell line (ovary)): < 4.30
- pIC50 (Homo sapiens, OVCAR-4, 72 h, OVCAR4 cell line (ovary)): < 4.30
- pIC50 (Homo sapiens, PANC-1, 72 h, PANC1 cell line (pancreas)): < 4.30
- pIC50 (Homo sapiens, PC-3, 72 h, PC3 cell line (prostate)): < 4.30
- pIC50 (Homo sapiens, PLC-PRF-5, 72 h, PLCPRF5 cell line (liver)): 5.42
- pIC50 (Homo sapiens, Panc1005, 72 h, PANC1005 cell line (pancreas)): < 4.30
- pIC50 (Homo sapiens, RD, RD cell line (muscle)): < 4.30
- pIC50 (Homo sapiens, Ramos, RAMOS cell line (hematological)): < 4.30
- pIC50 (Homo sapiens, SAOS-2, 72 h, SAOS2 cell line (bone)): 5.18
- pIC50 (Homo sapiens, SF-268, 72 h, SF268 cell line (brain)): 5.40
- pIC50 (Homo sapiens, SF-295, 72 h, SF295 cell line (brain)): 5.44
- pIC50 (Homo sapiens, SK-BR-3, 72 h, SKBR3 cell line (breast)): 6.66
- pIC50 (Homo sapiens, SK-HEP1, 72 h, SKHEP1 cell line (liver)): < 4.30
- pIC50 (Homo sapiens, SK-LMS-1, 72 h, SKLMS1 cell line (uterus)): 5.45
- pIC50 (Homo sapiens, SK-MEL-28, 72 h, SKMEL28 cell line (skin)): < 4.30
- pIC50 (Homo sapiens, SK-N-AS, SKNAS cell line (brain)): < 4.30
- pIC50 (Homo sapiens, SK-N-SH, SKNSH cell line (brain)): < 4.30
- pIC50 (Homo sapiens, SK-OV-3, 72 h, SKOV3 cell line (ovary)): 5.50
- pIC50 (Homo sapiens, SNB-75, 72 h, SNB75 cell line (brain)): < 4.30
- pIC50 (Homo sapiens, SU-DHL10, 72 h, SU-DHL-10 cell line (hematological)): < 4.30
- pIC50 (Homo sapiens, SU-DHL-6, 72 h, SU-DHL-6 cell line (hematological)): < 4.30
- pIC50 (Homo sapiens, SW-620, 72 h, SW620 cell line (colon)): 5.77
- pIC50 (Homo sapiens, T-24, 72 h, T24 cell line (bladder)): 5.28
- pIC50 (Homo sapiens, TE-671, 72 h, TE671 cell line (muscle)): < 4.30
- pIC50 (Homo sapiens, THP-1, 72 h, THP-1 cell line (hematological)): 5.25
- pIC50 (Homo sapiens, U2OS, U2OS cell line (bone)): < 4.30
- pIC50 (Homo sapiens, U-87 MG, U87MG cell line (brain)): < 4.30
- pIC50 (Homo sapiens, UMUC3, 72 h, UMUC3 cell line (bladder)): 5.11
- pIC50 (Homo sapiens, UO-31, 72 h, UO31 cell line (kidney)): < 4.30
- pIC50 (Homo sapiens, WSU-NHL, WSU-NHL cell line (hematological)): 5.25
- pIC50 (MT-3, 72 h, MT3 cell line (breast)): 5.50
- pIC50 (NCI-H358M, NCIH358M cell line (lung)): 5.04
- pIC50 (PBMC, PBMC (hematological)): < 4.30
- pIC50 (RD-ES, RDES cell line (bone)): 5.46
Structure (SMILES): O=c1[nH]c(=O)n([C@H]2C[C@H](O)[C@](CO)(CF)O2)cc1F [Cpd. No. 112, 5-fluoro-1-((2R,4S,5R)-5-(fluoromethyl)-4-hydroxy-5-(hydroxymethyl)tetrahydrofuran-2-yl)pyrimidine-2,4(1H,3H)-dione]
